# What was measured:
# Experiment in all cases: relative viability (nuclei count vs DMSO), 5 days (fraction); higher = more cells survive
# Avagacestat + Trametinib = compound: NC(=O)[C@@H](CCC(F)(F)F)N(Cc1ccc(-c2ncon2)cc1F)S(=O)(=O)c1ccc(Cl)cc1 [Avagacestat] + CC(=O)Nc1cccc(-n2c(=O)n(C3CC3)c(=O)c3c(Nc4ccc(I)cc4F)n(C)c(=O)c(C)c32)c1 [Trametinib] (partner 0.02 µM)
# Summary of the method: (§1)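 Lung cancer cell lines, seeded in 1536-well plates, were treated the following day by pin tool with a single drug or with five library-drug doses (not always all listed) in √10 steps on top of a fixed anchor-drug dose. Cells were fixed and nuclei stained in one step after 5 days, and nuclei were counted. Relative viability is the nuclei count for treated wells divided by that for vehicle wells, reported as medians of duplicate plates.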
# Avagacestat + OSI-027 = compound: NC(=O)[C@@H](CCC(F)(F)F)N(Cc1ccc(-c2ncon2)cc1F)S(=O)(=O)c1ccc(Cl)cc1 [Avagacestat] + COc1cccc2cc(-c3nc([C@H]4CC[C@H](C(=O)O)CC4)n4ncnc(N)c34)[nH]c12 [OSI-027] (partner 0.5 µM)
# Summary of the method: as §1
# Avagacestat + Crizotinib = compound: NC(=O)[C@@H](CCC(F)(F)F)N(Cc1ccc(-c2ncon2)cc1F)S(=O)(=O)c1ccc(Cl)cc1 [Avagacestat] + C[C@@H](Oc1cc(-c2cnn(C3CCNCC3)c2)cnc1N)c1c(Cl)ccc(F)c1Cl [Crizotinib] (partner 1 µM)
# Summary of the method: as §1
# Avagacestat + Phenformin = compound: NC(=O)[C@@H](CCC(F)(F)F)N(Cc1ccc(-c2ncon2)cc1F)S(=O)(=O)c1ccc(Cl)cc1 [Avagacestat] + N=C(N)NC(=N)NCCc1ccccc1 [Phenformin] (partner 250 µM)
# Summary of the method: as §1
Cell Line,relative viability (Avagacestat + Trametinib; first compound 0.08 µM),relative viability (Avagacestat + Trametinib; first compound 0.253 µM),relative viability (Avagacestat + Trametinib; first compound 0.8 µM),relative viability (Avagacestat + Trametinib; first compound 2.53 µM),relative viability (Avagacestat + Trametinib; first compound 8 µM),relative viability (Avagacestat + OSI-027; first compound 0.08 µM),relative viability (Avagacestat + OSI-027; first compound 0.253 µM),relative viability (Avagacestat + OSI-027; first compound 0.8 µM),relative viability (Avagacestat + OSI-027; first compound 2.53 µM),relative viability (Avagacestat + OSI-027; first compound 8 µM),relative viability (Avagacestat + Crizotinib; first compound 0.08 µM),relative viability (Avagacestat + Crizotinib; first compound 0.253 µM),relative viability (Avagacestat + Crizotinib; first compound 0.8 µM),relative viability (Avagacestat + Crizotinib; first compound 2.53 µM),relative viability (Avagacestat + Crizotinib; first compound 8 µM),relative viability (Avagacestat + Phenformin; first compound 0.08 µM),relative viability (Avagacestat + Phenformin; first compound 0.253 µM),relative viability (Avagacestat + Phenformin; first compound 0.8 µM),relative viability (Avagacestat + Phenformin; first compound 2.53 µM),relative viability (Avagacestat + Phenformin; first compound 8 µM)
NCI-H1975,0.305,0.361,0.429,0.33,0.361,0.874,0.709,0.873,0.582,0.603,0.989,1.1,1.1,0.926,0.905,0.48,0.422,0.42,0.398,0.42
NCI-H1993,0.576,0.316,0.629,0.504,0.577,0.583,0.548,0.536,0.524,0.521,0.925,0.777,1.03,0.907,0.879,0.548,0.531,0.473,0.451,0.59
NCI-H2009,0.267,0.245,0.283,0.252,0.251,0.708,0.749,0.662,0.579,0.563,1.04,1.14,1.01,1.04,0.975,0.562,0.595,0.514,0.491,0.455
NCI-H2023,0.681,0.59,0.569,0.522,0.449,0.471,0.466,0.505,0.344,0.302,0.751,0.78,0.583,0.577,0.602,0.474,0.476,0.453,0.35,0.368
NCI-H2085,0.608,0.604,0.637,0.559,0.644,0.928,0.837,0.898,0.742,0.897,0.928,0.975,1,1.04,0.811,0.85,0.756,0.726,0.862,0.729
NCI-H2087,0.211,0.223,0.196,0.183,0.198,0.631,0.617,0.63,0.54,0.575,1.18,1.01,0.906,1.07,0.843,0.535,0.561,0.548,0.467,0.441
NCI-H2126,0.612,0.553,0.545,0.524,0.512,0.847,0.721,0.703,0.616,0.669,1.07,1.14,0.977,1.04,1.04,0.509,0.516,0.569,0.561,0.511
NCI-H2170,1,1.17,1,0.867,0.881,0.862,0.8,0.851,0.721,0.643,1.27,1.59,1.2,1.38,0.976,0.418,0.411,0.377,0.406,0.382
NCI-H2228,0.591,0.535,0.753,0.59,0.354,0.849,0.455,0.57,0.503,0.504,0.472,0.487,0.427,0.465,0.423,0.417,0.263,0.271,0.296,0.243
NCI-H2347,0.283,0.324,0.388,0.327,0.283,0.506,0.352,0.398,0.366,0.369,0.693,0.74,0.692,0.511,0.66,0.363,0.537,0.602,0.448,0.357
NCI-H2405,0.687,0.69,0.548,0.508,0.554,0.628,0.638,0.603,0.571,0.516,0.881,0.825,0.81,0.849,0.853,0.393,0.45,0.44,0.381,0.408
NCI-H3122,0.298,0.233,0.197,0.23,0.219,1.09,1.24,1.21,,1.07,0.318,0.287,0.291,0.289,0.288,0.405,0.391,0.428,,0.405
PC-3 [JPC-3],0.763,0.754,0.816,0.742,0.714,0.912,0.799,0.908,0.697,0.735,1.15,1.25,1.16,1.05,0.993,0.461,0.443,0.487,0.472,0.521
PC-14,1.14,1.1,0.933,0.736,0.649,1.19,0.888,0.749,0.599,0.74,0.995,0.97,0.936,1.04,0.829,0.768,0.728,0.86,,0.628
RERF-LC-KJ,0.917,0.853,0.89,0.81,0.84,0.57,0.65,0.695,0.54,0.547,0.799,0.839,0.924,0.792,0.761,0.435,0.495,0.412,0.431,0.367
SK-LU-1,0.524,0.457,0.516,0.467,0.382,0.379,0.307,0.297,0.29,0.248,0.843,0.858,0.946,0.786,0.753,0.539,0.499,0.523,0.353,0.474
SK-MES-1,0.564,0.567,0.522,0.515,0.494,0.601,0.675,0.728,0.473,0.448,0.943,1.06,0.97,0.902,0.915,0.739,0.827,0.721,0.635,0.606
SW 1573,0.75,0.679,0.519,0.629,0.462,0.8,0.654,0.806,0.61,0.446,0.844,0.905,0.777,0.816,0.709,0.498,0.431,0.366,0.369,0.341
UMC-11,0.752,0.686,0.799,0.789,0.675,0.52,0.454,0.503,0.461,0.465,0.632,0.664,0.749,0.582,0.585,0.36,0.352,0.364,0.341,0.321

# — the supplement of paper PMC10307832
